Here are results for ten compounds from patent publication US10947205B2, “Oxazolidinone compounds and methods of use thereof as antibacterial agents” (priority 2015, dated 2021).

In assay [1] the test system is Mycobacterium tuberculosis (Mtb). Briefly: microbe, parasite or virus in culture. Type of assay: cell-based, Mycobacterium tuberculosis H37Rv (Mtb-GFP). Particulars: 168 h.
Assay [2] has as its system Staphylococcus aureus (methicillin resistant, MB5393, COL). Briefly: microbe, parasite or virus in culture. The class given is cell-based. Particulars: MRSA, 22 h, read-out: MRSA COL MITC95 μM.
Assay [3] deals with mitochondrial protein synthesis in HepG2 cells (COX-I / SDH-A). Briefly: Mitochondrial protein synthesis assay. Type of assay: cell-based. The conditions noted are these: Homo sapiens, 96 h; HepG2 cells, 4 days, ratio of COX-1 to SDH-A levels; read-out: MPS IC50_μM.
Where [4] appears, read: pH 6.8, read-out: Mtb Cho MITC95_μM.
Setting [5] is: pH 6.8, read-out: Mtb Glu MITC95_μM.

In brackets after ≈: the same amount, converted by molar mass. Like-named read-outs stand apart in the source and are kept apart here.

For `CSc1ccc(-c2ccc(N3C[C@H](Cn4cccn4)OC3=O)cc2F)cc1` [Example 46, (5R)-3-[2-fluoro-4′-(methylsulfanyl)biphenyl-4-yl]-5-(1H-pyrazol-1-ylmethyl)-1,3-oxazolidin-2-one], the results for the MIC in assay [1] (setting [4]), in assay [1] (setting [5]) and in assay [2] were 0.29 µM (≈ 0.111 µg/mL), 0.585 µM (≈ 0.224 µg/mL) and 200 µM (≈ 76.7 µg/mL), respectively. In assay [3], the IC50 is over 20 µM.

For `CC(C)(C)OC(=O)N1CC=C(c2ccc(N3C[C@H](CN)OC3=O)cc2F)CC1` [Example 26, tert-butyl 4-{4-[(5S)-5-(aminomethyl)-2-oxo-1,3-oxazolidin-3-yl]-2-fluorophenyl}-3,6-dihydropyridin-1(2H)-carboxylate], the results for the MIC in assay [1] (setting [4]), in assay [1] (setting [5]) and in assay [2] were 1.5 µM (≈ 0.587 µg/mL), 0.78 µM (≈ 0.305 µg/mL) and 200 µM (≈ 78.3 µg/mL), respectively. Besides, the IC50 in assay [3] is over 20 µM.

In the case of `NC[C@H]1CN(c2ccc(-c3cnn4ncccc34)c(F)c2)C(=O)O1` [Example 38, (5S)-5-(aminomethyl)-3-(3-fluoro-4-pyrazolo[1,5-b]pyridazin-3-ylphenyl)-1,3-oxazolidin-2-one], the MIC in assay [1] (setting [4]) was determined as 0.39 µM (≈ 0.128 µg/mL); in assay [1] (setting [5]), 0.14 µM (≈ 0.0458 µg/mL); in assay [2], 200 µM (≈ 65.5 µg/mL). For the same compound, in assay [3], the IC50 was over 20 µM.

For `CC(C)(O)c1ncc(-c2ccc(N3C[C@H](CN)OC3=O)cc2F)s1` [Example 23, (5S)-5-(aminomethyl)-3-{3-fluoro-4-[2-(1-hydroxy-1-methylethyl)-1,3-thiazol-5-yl]phenyl}-1,3-oxazolidin-2-one], the results for the MIC in assay [1] (setting [4]), in assay [1] (setting [5]) and in assay [2] were 0.19 µM (≈ 0.0668 µg/mL), 0.19 µM (≈ 0.0668 µg/mL) and 200 µM (≈ 70.3 µg/mL), respectively. For the same compound, the IC50 in assay [3] is over 20 µM.

On to `CC(=O)NC[C@H]1CN(c2ccc(N3CCOCC3)c(F)c2)C(=O)O1` [linezolid, reference compound], for which the MIC turned out to be 3.14 µM (≈ 1.06 µg/mL) in assay [1] (setting [4]), 4.58 µM (≈ 1.55 µg/mL) in assay [1] (setting [5]) and 6.25 µM (≈ 2.11 µg/mL) in assay [2]. Moreover, in assay [3], the IC50 amounted to 8 µM.

For `CSc1ccc(-c2ccc(N3C[C@H](Cn4occc4=O)OC3=O)cc2F)cc1` [Example 50, (R)-2-((3-(2-fluoro-4′-(methylthio)-[1,1′-biphenyl]-4-yl)-2-oxooxazolidin-5-yl)methyl)isoxazol-3(2H)-one], the figures for the MIC in assay [1] (setting [4]), in assay [1] (setting [5]) and in assay [2] were 0.58 µM (≈ 0.232 µg/mL), 0.29 µM (≈ 0.116 µg/mL) and 200 µM (≈ 80.1 µg/mL), respectively. Also, the IC50 in assay [3] is over 20 µM.

As for `NC[C@H]1CN(c2ccc(-c3ccn[nH]3)c(F)c2)C(=O)O1` [Example 16, (5S)-5-(aminomethyl)-3-[3-fluoro-4-(1H-pyrazol-5-yl)phenyl]-1,3-oxazolidin-2-one], the values for the MIC in assay [1] (setting [4]), in assay [1] (setting [5]) and in assay [2] were 0.39 µM (≈ 0.108 µg/mL), 0.19 µM (≈ 0.0525 µg/mL) and 200 µM (≈ 55.3 µg/mL), respectively. For the same compound, in assay [3], the IC50 is over 20 µM.

For the compound `NC[C@H]1CN(c2ccc(-c3cccc([N+](=O)[O-])c3)c(F)c2)C(=O)O1` [Example 20, (5S)-5-(aminomethyl)-3-(2-fluoro-3′-nitrobiphenyl-4-yl)-1,3-oxazolidin-2-one], the MIC in assay [1] (setting [4]) turned out to be 0.58 µM (≈ 0.192 µg/mL); in assay [1] (setting [5]), 0.14 µM (≈ 0.0464 µg/mL); in assay [2] it was 200 µM (≈ 66.3 µg/mL). Also, the IC50 in assay [3] is over 20 µM.

Take `CSc1ccc(-c2ccc(N3C[C@H](Cn4cnnn4)OC3=O)cc2F)cc1` [Example 44, (5R)-3-[2-fluoro-4′-(methylsulfanyl)biphenyl-4-yl]-5-(1H-tetrazol-1-ylmethyl)-1,3-oxazolidin-2-one]: the MIC in assay [1] (setting [4]) was determined as 0.04 µM (≈ 0.0154 µg/mL); in assay [1] (setting [5]), 0.19 µM (≈ 0.0732 µg/mL); in assay [2] it was 200 µM (≈ 77.1 µg/mL). Besides, the IC50 in assay [3] was over 20 µM.

`NC[C@H]1CN(c2ccc(-c3cccc(N4CCS(=O)(=O)CC4)c3)c(F)c2)C(=O)O1` [Example 21, (5S)-5-(aminomethyl)-3-[3′-(1,1-dioxidothiomorpholin-4-yl)-2-fluorobiphenyl-4-yl]-1,3-oxazolidin-2-one]: the figures for the MIC in assay [1] (setting [4]), in assay [1] (setting [5]) and in assay [2] were 1.5 µM (≈ 0.629 µg/mL), 0.39 µM (≈ 0.164 µg/mL) and 200 µM (≈ 83.9 µg/mL), respectively. For the same compound, the IC50 in assay [3] was 25 µM.
